Data published in US20240199624A1, “COMPOUNDS, COMPOSITIONS, AND METHODS” (CHDI Foundation, Inc., priority 2022, published 2024).

Tests used:
human MutSbeta [1] = target: T1, human MutSbeta (Homo sapiens, UniProt P20585+P43246); test: P33 SPA; type: biochemical; conditions: ATP added to compounds first, then enzyme with DNA; 2 μM ATP, 7 nM enzyme, 60 min 37° C.
T1 construct: Msh2(1-934), Gene ID NP_000242.1; Msh3(1-1137), Gene ID J04810.1
Method: (§1) P33 SPA: Enzyme human MutSbeta (Msh2(1-934), Gene ID NP_000242.1, Msh3(1-1137), Gene ID J04810.1) and 22 bp biotin-labeled DNA containing a GT-mismatch (purchased from Curia Global, TOP 5′-[…]-3′; BOT 3′-AGTAGCTAGGC - - - CGAAGTCTACC-5′-Biotin) were pre-incubated at equimolar concentration for 15 min at room temperature (“RT”) in assay buffer (25 mM HEPES pH=7.5, 150 mM KCl, 2 mM MgCl2, 2 mM GSH, 0.01% Tween-20). ATP (10 μL, 2× final concentration of γ-[^33P]-ATP (final 0.1 nM; Hartmann Analytic, FF-301) and cold ATP (final 2 μM)) was added to compounds (400 nL spotted as concentration response in 100% DMSO into wells of an OptiPlate) and pre-incubated for 30 min at RT. Then, enzyme with DNA was added (10 μL, 2× final concentration of 7 nM) and incubated for 60 min at 37° C. in a total volume of 20 μL per well. Decay of [^33P] with a half-life of 25.4 days was corrected by increasing the concentration of the labelled nucleotide with the appropriate factor; all steps with radioactive ATP were conducted behind appropriate shielding. Then, 20 μL of a 1:2 mix of ammonium molybdate (20 mg/mL Ammonium molybdate in 2.4 M HCl) and SPA beads (ProteinA SPA beads from Perkin Elmer Cat #RPNQ0019 at 7.5 mg/mL+1% azide) was added per well and incubated at RT for 2 min. Then, 40 μL of 7 M CsCl and 0.1 M citrate was added per well and incubated for 20 h at RT before measuring on the MicroBeta (top read mode, 1 min per well). For full plate processing, all reagents were transferred with a pipettor (Selma, CyBio) apart from the final reagent (CsCl+citrate) which was added with a dispenser (MultiFlo, BioTek). Data analysis during assay development was done with Prism GraphPad.

human MutSbeta [2] = target: T1, human MutSbeta; test: P33 SPA 1.1; type: biochemical; conditions: Table 5A; enzyme first added to compounds, then ATP
Method: as §1
P33 SPA 11: For the SPA 1.1 assay, the addition of reagents was reversed, i.e. enzyme was first added to the compounds and pre-incubated followed by ATP addition; thus, the assay was aligned with ADP Glo 1.1 reagent addition order. The assay was repeated under similar conditions, and the results are shown below in Table 5B. It is contemplated the solubility of the compounds and/or varying test occasions may account for variability of assay results.

[3] = P33 SPA counter assay (absence of enzyme); conditions: interference with detection system
Method: P33 SPA counter assay: This assay was used in the absence of enzyme to determine whether the test compound interferes with the detection system. Otherwise, the same protocol and assay buffer as in the main SPA assay were applied (25 mM HEPES pH=7.5, 150 mM KCl, 2 mM MgCl2, 2 mM GSH, 0.01% Tween-20) and instead of enzyme addition, assay buffer was added. Hydrolysis of substrate (γ-[^33P]-ATP, 0.1 nM; Hartmann Analytic, FF-301; and cold ATP, 10 μM) to a similar level as under enzymatic conditions was achieved by incubation at 50° C. for 4 days. Decay of [^33P] with a half-life of 25.4 days was corrected by increasing the concentration of the labelled nucleotide with the appropriate factor; all steps with radioactive ATP were conducted behind appropriate shielding. After addition of pre-treated ATP substrate (10 μL) to the compounds and addition of buffer (10 μL, instead of enzyme), 20 μL of a 1:2 mix of ammonium molybdate (20 mg/mL Ammonium molybdate in 2.4M HCl) and SPA beads (ProteinA SPA beads from Perkin Elmer Cat #RPNQ0019 at 7.5 mg/mL+1% azide) was added per well and incubated at RT for 2 min. Then, 40 μL of 7 M CsCl and 0.1 M citrate was added per well and incubated for 1 h at room temperature before measuring on the MicroBeta (top read mode, 1 min per well). For full plate processing, all reagents were transferred with a pipettor (Selma, CyBio) apart from the final reagent (CsCl+citrate) which was added with a dispenser (MultiFlo, BioTek). Data analysis during assay development was done with Prism GraphPad, and IC50 fitting for whole compound plates was done with the in-house software Aplus.

human MutSbeta [4] = target: T1, human MutSbeta; test: ADP Glo assay 2.1; type: biochemical; conditions: 10 μM ATP, 7 nM enzyme; buffer with 5 mM GSH, 0.2% Ovalbumin
Method: (§2) ADP Glo assay 2.1: Enzyme human MutSbeta (Msh2(1-934), Gene ID NP_000242.1, Msh3(1-1137), Gene ID J04810.1) with 22 bp biotin-labeled DNA containing a GT-mismatch (purchased from Curia Global, TOP 5′-[…]-3′; BOT 3′-AGTAGCTAGGC - - - CGAAGTCTACC-5′-Biotin) was pre-incubated in assay buffer (25 mM HEPES pH=7.5, 150 mM KCl, 5 mM MgCl2, 5 mM GSH, 0.1% Pluronic F-127, 0.2% Ovalbumin) to allow formation of the enzyme-DNA complex. Plates with spotted compounds in serial dilutions in DMSO (80 nL) were filled with ATP (2 μL, 10 μM final concentration) followed by an incubation of 30 min at RT. Then, enzyme was added (2 μL, 7 nM final concentration) and the reaction was allowed to proceed for 60 min at 37° C. After the ATPase reaction, the commercially available “ADP-Glo Reagent” was added (incubate 40 min at RT) to deplete remaining ATP via the activity of […]. Subsequently, the commercially available “Kinase Detection Reagent” converted ADP to ATP via the activity of PEP and Pyruvate kinase. The ATP was then converted into light by Ultra-Glo Luciferase. The obtained luminescence was proportional to the ADP concentration generated during the initial ATPase reaction. The luminescence signal was measured with an Envision reader, raw data were analyzed towards controls (full reaction=0% inhibition; no reaction in absence of enzyme=100% inhibition) and IC50 curves were analyzed with the inhouse software Aplus.

human MutSbeta [5] = target: T1, human MutSbeta; test: ADP Glo assay 1.1; type: biochemical; conditions: SPA buffer, no Ovalbumin; enzyme added to compounds before ATP; read-out: ADP Gol 1.1 assay IC50
Method: as §2
ADP Glo assay 1.1: The ADP Glo 2.1 assay was adapted to enable assessment of a more direct interaction of the compound with the enzyme: (1) the SPA buffer was applied (25 mM HEPES pH=7.5, 150 mM KCl, 2 mM MgCl2, 2 mM GSH, 0.01% Tween-20) which contained no decoy Ovalbumin protein. (2) The order of reagent addition was changed, and enzyme was now added directly to the spotted compounds before addition of ATP.

human MutSα = target: T2, human MutSα (Homo sapiens, UniProt P43246+P52701); test: ADP Glo assay with MutSα (2.1); type: biochemical; conditions: 15 nM MutSα/DNA, 30 μM ATP
T2 construct: Msh2(1-934), Gene ID NP_000242.1; Msh6(1-1360), Gene ID NP_001393725.1
Method: as §2
ADP Glo assay with MutSα (2.1): The ADP Glo assay version 2.1 with the enzyme human MutSα (Msh2(1-934), Gene ID NP_000242.1, Msh6(1-1360), Gene ID NP_001393725.1) was based on the same principle and protocol steps as the MutSβ assay. A 22 bp biotin-labeled DNA containing a GT-mismatch (purchased from Curia Global, TOP 5′-[…]-3′; BOT 3′-AGTAGCTAGGC - - - CGAAGTCTACC-5′-Biotin) was used for binding to MutSα. For this assay, concentrations of enzyme and ATP were optimized to 15 nM MutSα/DNA and 30 μM ATP.

T2 sequence (P43246 whole entry): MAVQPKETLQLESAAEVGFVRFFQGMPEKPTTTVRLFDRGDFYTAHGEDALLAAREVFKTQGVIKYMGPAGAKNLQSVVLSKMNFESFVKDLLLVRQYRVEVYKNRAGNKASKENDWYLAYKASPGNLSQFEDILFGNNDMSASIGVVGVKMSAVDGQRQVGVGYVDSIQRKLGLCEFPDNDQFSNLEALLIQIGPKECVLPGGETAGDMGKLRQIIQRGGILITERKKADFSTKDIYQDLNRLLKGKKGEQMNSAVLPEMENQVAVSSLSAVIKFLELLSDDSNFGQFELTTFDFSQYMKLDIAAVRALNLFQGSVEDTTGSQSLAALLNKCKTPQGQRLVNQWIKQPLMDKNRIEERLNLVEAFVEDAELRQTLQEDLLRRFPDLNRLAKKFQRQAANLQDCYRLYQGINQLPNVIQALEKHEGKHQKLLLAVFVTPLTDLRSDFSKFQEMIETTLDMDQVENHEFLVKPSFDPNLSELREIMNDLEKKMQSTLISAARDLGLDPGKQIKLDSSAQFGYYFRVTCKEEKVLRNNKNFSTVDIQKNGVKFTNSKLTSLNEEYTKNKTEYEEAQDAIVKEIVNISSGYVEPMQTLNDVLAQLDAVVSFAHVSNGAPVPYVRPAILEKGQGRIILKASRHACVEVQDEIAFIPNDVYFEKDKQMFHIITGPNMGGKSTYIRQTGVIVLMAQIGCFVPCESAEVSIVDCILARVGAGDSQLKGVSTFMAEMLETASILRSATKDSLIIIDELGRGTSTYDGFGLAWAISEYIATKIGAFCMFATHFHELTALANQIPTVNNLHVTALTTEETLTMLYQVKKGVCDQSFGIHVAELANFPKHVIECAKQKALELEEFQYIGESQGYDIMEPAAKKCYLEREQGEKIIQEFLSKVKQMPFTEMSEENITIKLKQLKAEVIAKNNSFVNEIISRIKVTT
T2 sequence (P52701 whole entry): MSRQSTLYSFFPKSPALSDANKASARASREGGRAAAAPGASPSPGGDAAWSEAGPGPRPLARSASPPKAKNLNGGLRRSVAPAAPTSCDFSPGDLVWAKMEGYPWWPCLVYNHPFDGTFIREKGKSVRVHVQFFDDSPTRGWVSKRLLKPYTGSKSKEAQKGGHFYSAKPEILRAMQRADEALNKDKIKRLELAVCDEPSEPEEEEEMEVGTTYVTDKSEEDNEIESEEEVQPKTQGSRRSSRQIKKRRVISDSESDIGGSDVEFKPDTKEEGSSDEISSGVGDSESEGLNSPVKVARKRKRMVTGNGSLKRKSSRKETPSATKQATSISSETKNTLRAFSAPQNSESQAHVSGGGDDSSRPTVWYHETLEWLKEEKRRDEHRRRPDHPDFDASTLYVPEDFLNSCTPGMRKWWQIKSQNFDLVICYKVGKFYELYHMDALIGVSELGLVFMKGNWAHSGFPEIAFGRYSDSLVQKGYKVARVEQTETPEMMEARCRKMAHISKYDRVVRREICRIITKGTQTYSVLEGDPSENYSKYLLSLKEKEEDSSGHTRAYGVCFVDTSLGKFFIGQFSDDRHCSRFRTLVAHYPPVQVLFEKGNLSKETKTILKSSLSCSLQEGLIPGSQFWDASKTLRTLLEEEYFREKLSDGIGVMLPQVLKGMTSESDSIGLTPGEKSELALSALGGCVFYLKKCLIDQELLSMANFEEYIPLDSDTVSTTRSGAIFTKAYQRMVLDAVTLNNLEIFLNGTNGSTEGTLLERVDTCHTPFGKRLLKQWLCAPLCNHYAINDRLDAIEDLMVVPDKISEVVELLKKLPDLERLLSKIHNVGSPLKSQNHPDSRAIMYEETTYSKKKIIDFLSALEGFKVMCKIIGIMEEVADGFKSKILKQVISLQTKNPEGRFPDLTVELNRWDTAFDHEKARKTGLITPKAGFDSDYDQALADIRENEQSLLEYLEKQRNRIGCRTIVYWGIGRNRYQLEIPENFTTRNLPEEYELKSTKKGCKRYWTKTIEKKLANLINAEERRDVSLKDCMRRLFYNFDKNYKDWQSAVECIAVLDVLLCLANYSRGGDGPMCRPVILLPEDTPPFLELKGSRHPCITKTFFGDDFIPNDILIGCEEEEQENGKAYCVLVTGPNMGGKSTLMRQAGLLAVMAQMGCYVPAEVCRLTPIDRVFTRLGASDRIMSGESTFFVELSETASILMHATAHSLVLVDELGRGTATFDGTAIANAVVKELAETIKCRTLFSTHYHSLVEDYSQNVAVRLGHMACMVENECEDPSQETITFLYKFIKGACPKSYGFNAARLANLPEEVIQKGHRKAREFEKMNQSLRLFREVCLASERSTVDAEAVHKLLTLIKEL
T1 sequence (P43246 whole entry): as the sequence (P43246 whole entry) above
T1 sequence (P20585 whole entry): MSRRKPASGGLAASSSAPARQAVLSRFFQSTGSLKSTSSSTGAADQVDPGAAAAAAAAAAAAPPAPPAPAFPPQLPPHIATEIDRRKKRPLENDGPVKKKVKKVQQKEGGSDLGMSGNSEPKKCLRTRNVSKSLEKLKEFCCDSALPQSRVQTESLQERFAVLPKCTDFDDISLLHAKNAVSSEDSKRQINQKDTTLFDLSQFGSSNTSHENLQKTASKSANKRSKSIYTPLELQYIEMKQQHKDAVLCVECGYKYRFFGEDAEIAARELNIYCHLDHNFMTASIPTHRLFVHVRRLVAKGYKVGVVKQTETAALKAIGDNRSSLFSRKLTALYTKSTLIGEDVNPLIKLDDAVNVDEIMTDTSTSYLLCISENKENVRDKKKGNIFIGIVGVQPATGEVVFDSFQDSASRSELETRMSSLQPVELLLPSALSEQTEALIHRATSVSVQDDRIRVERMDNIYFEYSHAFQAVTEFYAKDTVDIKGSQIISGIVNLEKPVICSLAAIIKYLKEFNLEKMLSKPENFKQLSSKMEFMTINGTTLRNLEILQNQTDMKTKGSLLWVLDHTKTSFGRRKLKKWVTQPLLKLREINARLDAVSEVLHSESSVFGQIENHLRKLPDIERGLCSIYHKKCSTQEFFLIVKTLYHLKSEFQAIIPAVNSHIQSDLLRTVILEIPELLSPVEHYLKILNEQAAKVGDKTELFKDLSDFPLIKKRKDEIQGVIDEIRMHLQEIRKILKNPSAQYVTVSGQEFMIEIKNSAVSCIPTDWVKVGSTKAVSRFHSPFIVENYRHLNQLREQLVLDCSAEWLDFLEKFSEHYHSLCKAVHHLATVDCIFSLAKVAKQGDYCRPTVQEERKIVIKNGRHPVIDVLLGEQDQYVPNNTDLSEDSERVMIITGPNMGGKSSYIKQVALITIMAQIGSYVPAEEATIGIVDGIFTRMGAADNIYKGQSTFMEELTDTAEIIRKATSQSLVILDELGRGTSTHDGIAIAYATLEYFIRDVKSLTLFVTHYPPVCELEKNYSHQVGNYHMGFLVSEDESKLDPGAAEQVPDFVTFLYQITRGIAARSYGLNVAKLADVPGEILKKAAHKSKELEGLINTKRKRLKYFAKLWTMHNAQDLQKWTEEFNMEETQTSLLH

Row | Compound | IC50 (human MutSbeta [1]) [µM] | IC50 (human MutSbeta [2]) [µM] | IC50 [3] [µM] | IC50 (human MutSbeta [4]) [µM] | IC50 (human MutSbeta [5]) [µM] | IC50 (human MutSα) [µM]
1 | Cc1cccc(Nc2nc(N3CCN(C)CC3)nc3nccnc23)c1 [Compound 6, 2-(4-methylpiperazin-1-yl)-N-(m-tolyl)pteridin-4-amine] | 26.2 | 41.5 | > 200 | 47.1 | 82.1 | 
2 | CN1CCN(c2nc(NCc3ccccc3)c3nccnc3n2)CC1 [Compound 5, N-benzyl-2-(4-methylpiperazin-1-yl)pteridin-4-amine] | 31 | 44.8 | > 200 | 148 | 63.4 | > 200
3 | CCN1CCN(c2nc(Nc3ccc(F)c(F)c3)c3nccnc3n2)CC1 [Compound 16, N-(3,4-difluorophenyl)-2-(4-ethylpiperazin-1-yl)pteridin-4-amine] | 122 | > 200 | > 200 | > 200 | > 200 | 42.7

Stronger by IC50 (human MutSbeta [1]), values ahead:

Row | IC50 (human MutSbeta [1]) [µM] | IC50 (human MutSbeta [2]) [µM] | IC50 [3] [µM] | IC50 (human MutSbeta [4]) [µM] | IC50 (human MutSbeta [5]) [µM] | IC50 (human MutSα) [µM] | Compound
4 | 12.9 | 43.4 | > 200 | 140 | 109 | 26.9 | Cc1ccc(Nc2nc(N3CCN(C)CC3)nc3nccnc23)cc1Cl [Compound 20, N-(3-chloro-4-methyl-phenyl)-2-(4-methylpiperazin-1-yl)pteridin-4-amine]
5 | 20.8 | 24.5 |  | 32.6 | 42.5 | 42.3 | CCN1CCN(c2nc(Nc3ccc(F)c(C)c3)c3nccnc3n2)CC1 [Compound 3, 2-(4-ethylpiperazin-1-yl)-N-(4-fluoro-3-methyl-phenyl)pteridin-4-amine]
